According to patent US20250327043A1, “ALCOHOL ACYLTRANSFERASE AND A […], TISSUE, AND ORGANISM COMPRISING SAME” (YEDA RESEARCH AND DEVELOPMENT CO. LTD., priority 2022, published 2025):
“Also recorded” adds a separate entry of the source.

B1: HuAAT14: BAHD alcohol acyltransferase from Helichrysum umbraculigerum, recombinantly expressed in E. coli, SEQ ID NO: 30 (protein, listed as Helichrysum umbraculigerum)
chain: MGTIYQSPMIKSSTPKIIEDLKVIIHDTFTIFPPHETEKRSMFLSNIDQVLTFNVETVHFFAANPDFPPQVVAEKLKLALSKALVPYDFLAGRLKLNHESQRFEFDCNGAGARFVVGSSEFELGEIGDLVYPNPGFRQLVQKSYDNLELHEKPLCILQLTSFKCGGFALGVATNHATFDGLSFKTFLQNLGSLAADQPLAVDPCNDRHLLAARSPPKVQFDHPELLKIPTGTDIPNPTVFDCPESQLDFKIFNLTSDDIAHLKTKAKDGPGSTNAKITGFNVVAAHVWRCKALSSGSEYDPERVSTVLYAVDIRSRLNLPLSLAGNAVLSAYASAKCKEIEEGPLSRLVEMVTEGTNRMTGEYARSVIDWGEVNKGFPNGEFLISSWWRLGFADVEYPWGKPRYSCPVVYHRKDIILLFPDIVGADNNNEVNVLVALPGKEMEKFETLFHKFLA
B2: HuAAT5: BAHD alcohol acyltransferase from Helichrysum umbraculigerum, recombinantly expressed in E. coli, SEQ ID NO: 19 (protein, listed as Helichrysum umbraculigerum)
chain: MPSSSSSPSSTADSVTIISKCTVYPHMKNSTPESLQLSVSDLPMLSCQYIQKGVLLSQPPPNHTNNIISHLKLSLSKTLSHFPPLAGRLSTDSHGHVSIICNDSGVEFVHSTANHLHTHQILPLNSDVHPCFKTFFAFDKTLSYAGHHQPIAAVQVTELADGLFIGCTVNHAVVDGTSFWNFFNTFAEITKGCQKVTNLPDFSRENVFISPVVLPLPSGGPSATFSGDEPLRERIIHFSRDAILKMKFRANNPLWRQPQNSDLDDTEIYGKVCNDINGKVNGAFKPKSEISSFQSLCGQLWRAVTRARKFNDPIKTTTFRMAVNCRHRLDPKVDKLYFGNLIQSIPTVASVGELLSHDLSWAANELHQNVVAHDNATVRRGVKDWENNPKLFPLGNFDGAMITMGSSPRFPMYNNDFGWGRPMAVRSGKANKFDGKISAFPGRDGDGSVDLEVVLAPETMACLERDHEFMQYVS

Key:
HuAAT5 = experiment: AAT enzyme assay with the purified HuAAT5 enzyme; type: biochemical, Helichrysum umbraculigerum; settings: acyl donors acetyl-, iso-butyryl-, iso-valeryl- or hexanoyl-CoA, 30° C., 3 h, pH 7.4
Description: (§1) Selected AAT genes from Helichrysum were individually cloned into the pET28b vector and expressed in E. coli BL21 (DE3) cells. Bacterial cells were grown overnight in LB medium at 37° C., diluted in fresh LB 1:100, and re-incubated at 37° C. When cultures reached A600=0.6, protein expression was induced with 400 μM of isopropyl-1-thio-β-d-galactopyranoside (IPTG) overnight at 15° C. Bacterial cells were lysed by sonication in 50 mM Tris-HCl pH 8, 0.5 mM phenylmethylsulfonyl fluoride (PMSF, Sigma Aldrich) solution in isopropanol, 10% glycerol and protease inhibitor cocktail (Sigma Aldrich), and 1 mg ml-1 lysozyme (Sigma Aldrich). The whole-cell extract was either kept for functional activity or used for protein purification. Purification of proteins was performed on Ni-NTA agarose beads (Adar Biotech). The proteins were eluted with 200 mM imidazole (Fluka) in a buffer containing 50 mM NaH2PO4, pH 8, and 0.5 M NaCl. Protein concentration of the eluted fractions was measured with Pierce™ 660 nm protein assay reagent (Thermo Scientific).
(§2) Recombinant AAT assays with the enzyme solutions using different donor and acceptor substrates were performed by mixing 7 μl of the cannabinoid acceptors (OA, CBGA, or heliCBGA, 1 mg ml^−1) with 58 μl of a potassium phosphate buffer (100 mM, pH 7.4) and incubating the mixture at 30° C. for 10 min. Next, 5 μl of the acyl-CoA donors (butyryl-CoA, hexanoyl-CoA, iso-valeryl-CoA, or acetyl-CoA, 10 mM) and 30 μl of the enzyme solutions were added. The reactions were incubated at 30° C. for 3 h. To stop the reactions, 100 μl ethanol was added to each tube, vortexed for 10 s, centrifuged at maximum speed for 10 min, and then the supernatant was recovered and used for UPLC-qTOF analysis. The assay with the purified HuAAT5 enzyme was performed by mixing 2 μl of the cannabinoid acceptors (OA, CBGA, heliCBGA, CBDA, Δ^9-THCA or CBCA) with 2 μl of the acyl-CoA donors (butyryl-CoA, iso-butyryl-CoA, hexanoyl-CoA, iso-valeryl-CoA, or acetyl-CoA, 10 mM), 44 μl of a potassium phosphate buffer (100 mM, pH 7.4), and 2 μl of the purified HuAAT5 enzyme solution. The reactions were incubated at 30° C. for 3 h. To stop the reactions, 50 μl ethanol was added to each tube and the acylated compounds were extracted and analyzed as previously described.

TRPV3 ion channel = target: T1, TRPV3 ion channel (Homo sapiens, UniProt Q8NET8); settings: cited from earlier work
T1 sequence (Q8NET8 1-790): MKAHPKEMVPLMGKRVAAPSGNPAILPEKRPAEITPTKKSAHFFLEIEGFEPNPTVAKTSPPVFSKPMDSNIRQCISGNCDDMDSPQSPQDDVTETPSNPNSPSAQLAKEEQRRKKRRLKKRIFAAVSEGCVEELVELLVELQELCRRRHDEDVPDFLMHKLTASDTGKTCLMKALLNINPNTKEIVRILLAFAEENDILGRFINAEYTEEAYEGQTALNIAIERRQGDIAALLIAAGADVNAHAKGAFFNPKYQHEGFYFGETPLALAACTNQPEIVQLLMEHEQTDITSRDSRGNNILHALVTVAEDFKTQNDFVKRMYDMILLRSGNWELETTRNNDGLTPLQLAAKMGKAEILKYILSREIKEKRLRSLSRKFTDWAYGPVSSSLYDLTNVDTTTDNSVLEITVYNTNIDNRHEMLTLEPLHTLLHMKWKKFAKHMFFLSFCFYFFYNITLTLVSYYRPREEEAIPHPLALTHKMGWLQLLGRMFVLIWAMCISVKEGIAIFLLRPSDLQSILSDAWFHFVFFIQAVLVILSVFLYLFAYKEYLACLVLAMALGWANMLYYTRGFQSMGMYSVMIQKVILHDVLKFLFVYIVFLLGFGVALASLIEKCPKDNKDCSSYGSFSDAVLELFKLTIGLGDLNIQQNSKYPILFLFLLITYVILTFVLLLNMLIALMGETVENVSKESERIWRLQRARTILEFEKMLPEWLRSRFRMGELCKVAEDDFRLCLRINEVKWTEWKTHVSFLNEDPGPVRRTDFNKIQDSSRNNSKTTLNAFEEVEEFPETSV

[1] = Activity of E. coli lysates containing recombinant HuAATs (AAT enzyme assay, UPLC-qTOF readout); type: biochemical, Helichrysum umbraculigerum; settings: for acyltransferase activity of lysate towards the substrates: butyryl-CoA and hexanoyl-CoA as acyl donors, CBGA and heliCBGA as acceptors, 30° C., 3 h
Description: as §1
as §2, with “The assay with the purified HuAAT5 enzyme was performed by mixing 2 μl of the cannabinoid acceptors (OA, CBGA, heliCBGA, CBDA, Δ^9-THCA or CBCA) with 2 μl of the acyl-CoA donors (butyryl-CoA, iso-butyryl-CoA, hexanoyl-CoA, iso-valeryl-CoA, or acetyl-CoA, 10 mM), 44 μl of a potassium phosphate buffer (100 mM, pH 7.4), and 2 μl of the purified HuAAT5 enzyme solution. The reactions were incubated at 30° C. for 3 h.” left out

| Molecule | acylation of the cannabinoid acceptor by purified HuAAT5 (HuAAT5) | also measured |
| --- | --- | --- |
| CCCCCc1cc2c(c(O)c1C(=O)O)[C@@H]1C=C(C)CC[C@H]1C(C)(C)O2 (relative stereo) [Δ^9-THCA, (−)-trans-Δ^9-tetrahydrocannabinolic acid] | inactive | – |
| CCCCCc1cc2c(c(O)c1C(=O)O)C=CC(C)(CCC=C(C)C)O2 (stereo not shown) [CBCA, cannabichromenic acid] | inactive | – |
| C=C(C)[C@@H]1CCC(C)=C[C@H]1c1c(O)cc(CCCCC)c(C(=O)O)c1O [CBDA, cannabidiolic acid] | successfully acylated | – |
| CCCCCc1cc(O)c(C/C=C(\C)CCC=C(C)C)c(O)c1C(=O)O [CBGA, cannabigerolic acid] | successfully acylated | – |
| CCC(C)C(=O)Oc1cc(CCc2ccccc2)cc(O)c1CC=C(C)C (stereo not shown) [O-methylbutyryl deprenylhelycannabigenol] | – | affinity for the ionotropic TRPV3 ion channel (TRPV3 ion channel): sub-micromolar |
| CCCCCc1cc(O)cc(O)c1C(=O)O [OA, Olivetolic acid] | successfully acylated | – |
| CC(C)=CCCC(C)=CCc1c(O)cc(CCc2ccccc2)c(C(=O)O)c1O [heliCBGA, helicannabigerolic acid] | successfully acylated | – |
| B1 | – | acyltransferase activity of lysate towards the substrates [1]: showed activity towards all of these substrates; also recorded: acylated the cannabinoids with both acyl-CoAs |
| B2 | – | amounts of products catalyzed, compared between the two active enzymes ([1]; HuAAT5 versus HuAAT14): considerably greater amounts of products; acyltransferase activity of lysate towards the substrates [1]: showed activity towards all of these substrates; also recorded: acylated the cannabinoids with both acyl-CoAs |
